# According to publication PMC8037097, “Highly Oxygenated Triterpenoids and Diterpenoids from Fructus Rubi (Rubus chingii Hu) and Their NF-kappa B Inhibitory Effects” (Molecules, 2021):
# Like-named read-outs stand apart in the source and are kept apart here.
# How the values were obtained:
# [1] = tested on: NF-κB; test: NF-κB inhibitory assay (luciferase, HEK293 with stable NF-κB expression, TNF-α stimulation); type: cell-based; settings: read-out: NF-κB (IC50)
# Method: HEK293 with a stable NF-κB expression cell line was used for the luciferase assay. Cells were maintained at 37 °C and 5% CO2 atmosphere in Dulbecco’s modified Eagle’s medium with 100 U/mL benzylpenicillin 100 μg/mL streptomycin, 2 mM glutamine, and 10% fetal bovine serum. Before seeding in 96-well plates, the cells were stained for 1 h in serum-free medium supplemented with […] cell Tracker Green CMFDA. Cells were seeded into 96-well plates and incubated for 24 h, and then treated with different concentrations of the tested compounds followed by stimulation with 20 ng/mL TNF-α. The luciferase substrate was added to each well after incubation for 6 h, and then the released luciferin signal was detected using an EnVision microplate reader. The IC50 value was derived from a nonlinear regression model (curve-fit), based on a sigmoidal dose response curve (variable slope) and computed using Graphpad Prism 5 (Graphpad Software). Bortezomib (PS-341, CAS No. 179324-69-7) was used as the positive control.
# [2] = tested on: C. albicans SC5314 sensitive strain; test: Anti-fungal susceptibility assay (CLSI M27-A3), sensitive strain; type: cell-based; settings: Candida albicans, 48 h incubation at 37 °C
# Method: An anti-fungal assay was carried out on the basis of the Clinical and Laboratory Standards Institute (CLSI) method M27-A3 [45, 48]. A single colony of Candida albicans (the resistant strain 901 or the sensitive strain 5314) was chosen from Sabouraud’s agar and then inoculated in yeast extract peptone dextrose medium (YEPD) for activation by shake bottled cultivation (200 rpm, 37 °C). After 16 h, fungi in the late-exponential growth phase were obtained, followed by being adjusted to 1 × 10^3–5 × 10^3 CFU/mL with RPMI 1640 medium. The density of the fungi in 96-well plates was 10^3 CFU/mL, while the final concentrations of the test compounds ranged from 64 to 0.125 μg/mL in triplicate. The assay volume in each well was 100 μL with MIC80 determined following 48 h incubation at 37 °C. Optical density was measured with a microplate reader (Multiskan MK3; Labsystems, Nantaa, Finland) at 630 nm. MIC80 was determined as the lowest concentration of the drugs that inhibited growth by 80% compared with the […]. Fluconazole was used as the positive control.
MIC80 [2] [µg/mL],Compound,"IC50 ([1]; Homo sapiens, HEK293, 6 h) [nM]",other results
,"CC(C)(O)/C=C/C(=O)[C@](C)(O)[C@H]1[C@H](O)C[C@@]2(C)[C@@H]3CC=C4[C@@H](C[C@H](O)C(=O)C4(C)C)[C@]3(C)C(=O)C[C@]12C [Compound 16, cucurbitacin D]",610 ± 120,
,"CC(C)(O)/C=C/C(=O)[C@](C)(O)[C@H]1[C@H](O)C[C@@]2(C)[C@@H]3CC=C4[C@@H](CC(=O)[C@@H](O)C4(C)C)[C@]3(C)C(=O)C[C@]12C [Compound 17, 3α,16α,20(R),25-tetrahydroxy-cucurbita-5,23-dien-2,11,22-trione]",1600 ± 320,
32,CC1(C)CC[C@]2(C(=O)O)CC[C@]3(C)C(=CC[C@@H]4[C@@]5(C)C[C@@H](O)[C@@H](O)[C@@](C)(CO)[C@@H]5CC[C@]43C)[C@@H]2C1 [Compound 12],,
,"CC(C)C[C@H](NC(=O)[C@H](Cc1ccccc1)NC(=O)c1cnccn1)B(O)O [PS-341, Bortezomib, reference compound]",,"IC50 ([1]; Homo sapiens, HEK293 NF-κB luciferase, 20 ng/mL TNF-α, 6 h, mean SEM of triplicated experiments): 440 ± 80 nM"
,cucurbitacin B [Compound 15],,"IC50 ([1]; HEK293 NF-κB luciferase, 20 ng/mL TNF-α, 6 h, mean SEM of triplicated experiments): 80 ± 30 nM"
0.125,"OC(Cn1cncn1)(Cn1cncn1)c1ccc(F)cc1F [Fluconazole, reference compound]",,
